The subject of this experiment is Alpha2 Adrenoceptors (alpha2AR). Description: Antagonist activity on alpha2 adrenoceptors in rat vas deferens in vitro (electrically evoked twitch response). Format: cell-based. The conditions noted are these: isolated rat vas deferens, field stimulation; antagonist given at least five minutes before alpha2AR agonist. As to the method:
Antagonist Activity on Alpha2 Adrenoceptors (alpha2AR) in Rat Vas Deferens in Vitro
Rats were killed by CO2-suffocation. Vas deferentia were dissected out and both prostatic halves were removed to tissue chambers containing Krebs-solution of the following composition (mM): NaCl 118, KCl 4.7, CaCl2 2.5, KH2PO4 1.2, MgSO4 0.6, NaHCO3 25, glucose 11.1, aerated by 5% carbogen, temperature 37° C., pH 7.4. Propranolol […] and desipramine […] were added to prevent the possible effects on […] receptors and to prevent re-uptake of released norepinephrine, respectively. Preparations were tied to the bottom hooks of the incubation chambers and the to isometric force-displacement transducers above. Electrical stimulation was started after the equilibrium period/5 minutes under a resting tension of 0.5 g) by introducing field stimulation with the following parameters: twin-pulses, voltage 70 V, frequency 0.2 Hz, delay 5 ms, duration 2 ms. […] Inhibition of the electrically evoked contractions was measured as the response to alpha2AR agonists. Antagonist was administered into the incubation medium at least five minutes before agonist. Means±SEM of percentage inhibition were calculated in the absence and in the presence of antagonist and expressed as dose-response curves. In order to express the antagonist potency, pA2-value was calculated.

Structures are written as SMILES.

For the molecule `C=C1CCC2(c3c[nH]cn3)Cc3ccccc3C12` (stereo not shown) [2(a), 4-(3-Methylene-2,3,3a,8-tetrahydro-1H-cyclopenta[a]inden-8a-yl)-1H-imidazole], the “Vas deferens Alpha2 antagonistic activity, pA2” value is given as “pA2 = 7.8”.
Take `COc1ccc2c(c1)C1CCCCC1(c1c[nH]cn1)C2` (stereo not shown) [Example 5(a), 4-(3-Methoxy-4b,5,6,7,8,9-hexahydrofluoren-8a-yl)-1H-imidazole]: the “Vas deferens Alpha2 antagonistic activity, pA2” value is listed as “pA2 = 6.9”.
On to `c1ccc2c(c1)CC1(c3c[nH]cn3)CCCC21` (stereo not shown) [Example 1(e), 4-(2,3,3a,8-Tetrahydro-1H-cyclopenta[a]inden-8a-yl)-1H-imidazole], for which the “Vas deferens Alpha2 antagonistic activity, pA2” value was “pA2 = 8.4”.
`OCCOCCOc1ccc2c(c1)C1CCCCC1(c1c[nH]cn1)C2` (stereo not shown) [Example 6, 2-{2-[8a-(1H-Imidazol-4-yl)-5,6,7,8,8a,9-hexahydro-4bH-fluoren-3-yloxy]-ethoxy}-ethanol]: the “Vas deferens Alpha2 antagonistic activity, pA2” value is “pA2 = 6.0”.
In the case of `Oc1ccc2c(c1)C1CCCCC1(c1c[nH]cn1)C2` (stereo not shown) [Example 5(b), 8a-(1H-Imidazol-4-yl)-5,6,7,8,8a,9-hexahydro-4bH-fluoren-3-ol] it was “pA2 = 7.7”.
On to `c1ccc2c(c1)CC1(c3c[nH]cn3)C3CCC(CC3)C21` (stereo not shown) [Example 7(f), 4-(5,8-Ethano-4b,5,6,7,8,9-hexahydro-fluoren-8a-yl)-1H-imidazole], for which the “Vas deferens Alpha2 antagonistic activity, pA2” value is recorded as “pA2 = 5.3”.
Take `Fc1ccc2c(c1)C1CCCCC1(c1c[nH]cn1)C2` (stereo not shown) [Example 4, 4-(3-Fluoro-4b,5,6,7,8,9-hexahydrofluoren-8a-yl)-1H-imidazole]: the “Vas deferens Alpha2 antagonistic activity, pA2” value is listed as “pA2 = 7.4”.
As to `CC1CCC2(c3c[nH]cn3)Cc3ccccc3C12` (stereo not shown) [Example 2(b), 4-(3-Methyl-2,3,3a,8-tetrahydro-1H-cyclopenta[a]inden-8a-yl)-1H-imidazole], the “Vas deferens Alpha2 antagonistic activity, pA2” value is “pA2 = 7.4”.
In the case of `c1ccc2c(c1)CC1(c3c[nH]cn3)Cc3ccccc3C21` (stereo not shown) [Example 8, 4-(4b,10-Dihydro-9H-indeno[1,2-a]inden-9a-yl)-1H-imidazole] it was “pA2 = 7.4”; in that of `c1ccc2c(c1)CC1(c3c[nH]cn3)CCCCC21` (stereo not shown) [3(i), 4-(4b,5,6,7,8,9-Hexahydrofluoren-8a-yl)-1H-imidazole], “pA2 = 8.2”.

The record behind these values is patent US6362211B1, “Polycyclic indanylimidazoles with alpha2 adrenergic activity” (Orion Corporation, priority 2000, dated 2002).
